Where two headings read alike, the source gives them in different places.
Columns and labels:
NaV1.8 [1] = biological target: T1, NaV1.8 (Homo sapiens, UniProt Q9Y5Y9); details: read-out: TTX IC50; cited from earlier work
NaV1.3 = NaV1.3 (Homo sapiens, UniProt Q9NY46); details: read-out: TTX IC50; cited from earlier work
NaV1.8 [2] = biological target: T1, NaV1.8; assay: Activity against NaV 1.8 channel (NaV inhibition assays, Table 4); assay type: cell-based
Method: Compounds of the invention are useful as antagonists of voltage-gated sodium ion channels. Antagonist properties of test compounds were assessed as follows. Cells expressing the NaV of interest were placed into microtiter plates. After an incubation period, the cells were stained with fluorescent dyes sensitive to the transmembrane potential. The test compounds were added to the microtiter plate. The cells were stimulated with either a chemical or electrical means to evoke a NaV dependent membrane potential change from unblocked channels, which was detected and measured with trans-membrane potential-sensitive dyes. Antagonists were detected as a decreased membrane potential response to the stimulus. The optical membrane potential assay utilized voltage-sensitive FRET sensors described by Gonzalez and Tsien (See Gonzalez, J. E. and R. Y. Tsien (1995) “Voltage sensing by fluorescence resonance energy transfer in single cells” Biophys J 69(4): 1272-80, and Gonzalez, J. E. and R. Y. Tsien (1997) “Improved indicators of cell membrane potential that use fluorescence resonance energy transfer” Chem Biol 4(4): 269-77) in combination with instrumentation for measuring fluorescence changes such as the Voltage/Ion Probe Reader (VIPR®) (See, Gonzalez, J. E., K. Oades, et al. (1999) “Cell-based assays and instrumentation for screening ion-channel targets” Drug Discov Today 4(9): 431439).
24 hours before the assay on VIPR, CHO cells endogenously expressing a NaV1.2 type voltage-gated NaV are seeded in 96-well poly-lysine coated plates at 60,000 cells per well. Other subtypes are performed in an analogous mode in a cell line expressing the NaV of interest. • 1) On the day of the assay, medium is aspirated and cells are washed twice with 225 μL of Bath Solution #2 (BS#2). • 2) A 15 uM CC2-DMPE solution is prepared by mixing 5 mM coumarin stock solution with 10% Pluronic 127 1:1 and then dissolving the mix in the appropriate volume of BS#2. • 3) After bath solution is removed from the 96-well plates, the cells are loaded with 80 μL of the CC2-DMPE solution. Plates are incubated in the dark for 30 minutes at room temperature. • 4) While the cells are being stained with coumarin, a […] oxonol solution in BS#2 is prepared. In addition to DiSBAC2(3), this solution should contain 0.75 mM ABSC1 and […] veratridine (prepared from 10 mM EtOH stock, Sigma #V-5754). • 5) After 30 minutes, CC2-DMPE is removed and the cells are washed twice with 225 μL of BS#2. […] The cells are then incubated for 20-30 minutes. • 7) Once the incubation is complete, the cells are ready to be assayed on VIPR® with a sodium addback protocol. […]
The following is an example of how NaV1.3 inhibition activity is measured using the optical membrane potential method#2. […]

neuropathic pain = details: in vivo; cited from earlier work

T1 sequence (Q9Y5Y9 whole entry, looked up): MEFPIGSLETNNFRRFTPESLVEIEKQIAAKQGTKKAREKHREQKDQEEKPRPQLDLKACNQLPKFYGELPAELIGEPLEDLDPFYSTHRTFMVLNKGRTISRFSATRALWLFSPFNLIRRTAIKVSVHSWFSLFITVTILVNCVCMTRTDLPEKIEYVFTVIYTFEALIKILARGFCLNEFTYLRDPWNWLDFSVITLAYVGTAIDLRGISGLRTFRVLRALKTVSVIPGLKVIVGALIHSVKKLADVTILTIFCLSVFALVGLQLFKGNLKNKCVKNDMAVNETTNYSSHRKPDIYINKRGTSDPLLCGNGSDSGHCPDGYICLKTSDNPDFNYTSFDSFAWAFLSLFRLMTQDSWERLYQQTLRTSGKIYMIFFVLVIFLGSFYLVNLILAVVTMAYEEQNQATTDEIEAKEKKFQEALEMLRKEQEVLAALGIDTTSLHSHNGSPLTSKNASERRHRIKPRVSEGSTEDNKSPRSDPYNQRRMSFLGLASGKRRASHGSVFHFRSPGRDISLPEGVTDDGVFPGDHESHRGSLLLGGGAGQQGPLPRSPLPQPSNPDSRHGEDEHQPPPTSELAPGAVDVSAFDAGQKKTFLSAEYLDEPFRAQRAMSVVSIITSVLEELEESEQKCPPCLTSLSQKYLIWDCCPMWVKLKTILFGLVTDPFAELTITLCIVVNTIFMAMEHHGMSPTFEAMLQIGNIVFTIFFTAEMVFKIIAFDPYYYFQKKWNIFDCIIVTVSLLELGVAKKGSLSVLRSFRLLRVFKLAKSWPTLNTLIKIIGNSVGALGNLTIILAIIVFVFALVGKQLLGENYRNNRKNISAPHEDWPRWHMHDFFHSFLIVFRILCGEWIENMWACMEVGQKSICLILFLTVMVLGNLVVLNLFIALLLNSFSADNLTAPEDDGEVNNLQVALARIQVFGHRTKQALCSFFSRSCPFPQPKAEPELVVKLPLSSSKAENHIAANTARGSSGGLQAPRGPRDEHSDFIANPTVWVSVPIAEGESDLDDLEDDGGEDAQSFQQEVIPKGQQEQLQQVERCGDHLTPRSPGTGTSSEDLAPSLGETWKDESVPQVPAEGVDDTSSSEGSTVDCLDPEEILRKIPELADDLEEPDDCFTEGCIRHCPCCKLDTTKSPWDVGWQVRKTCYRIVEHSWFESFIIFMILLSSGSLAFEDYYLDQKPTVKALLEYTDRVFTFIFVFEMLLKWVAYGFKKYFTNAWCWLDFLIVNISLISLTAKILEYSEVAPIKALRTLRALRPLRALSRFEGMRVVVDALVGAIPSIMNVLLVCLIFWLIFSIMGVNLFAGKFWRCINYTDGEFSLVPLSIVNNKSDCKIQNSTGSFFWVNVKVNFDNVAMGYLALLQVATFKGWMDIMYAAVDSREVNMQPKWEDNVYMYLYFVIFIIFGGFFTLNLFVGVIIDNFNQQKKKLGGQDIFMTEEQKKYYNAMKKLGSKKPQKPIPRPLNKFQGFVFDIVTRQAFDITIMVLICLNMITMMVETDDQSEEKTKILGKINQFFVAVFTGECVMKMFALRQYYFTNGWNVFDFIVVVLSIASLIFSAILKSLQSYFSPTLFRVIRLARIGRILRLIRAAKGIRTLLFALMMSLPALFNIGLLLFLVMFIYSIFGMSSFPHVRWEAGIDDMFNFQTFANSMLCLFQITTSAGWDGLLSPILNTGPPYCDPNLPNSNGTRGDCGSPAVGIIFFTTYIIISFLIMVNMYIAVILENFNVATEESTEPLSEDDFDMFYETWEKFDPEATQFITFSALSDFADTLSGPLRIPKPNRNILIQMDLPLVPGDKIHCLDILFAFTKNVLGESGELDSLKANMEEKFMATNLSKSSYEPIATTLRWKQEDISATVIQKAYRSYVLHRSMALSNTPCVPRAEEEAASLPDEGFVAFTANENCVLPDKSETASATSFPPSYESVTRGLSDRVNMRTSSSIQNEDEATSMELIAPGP
Chain of NaV1.3 (Q9NY46 whole entry, looked up): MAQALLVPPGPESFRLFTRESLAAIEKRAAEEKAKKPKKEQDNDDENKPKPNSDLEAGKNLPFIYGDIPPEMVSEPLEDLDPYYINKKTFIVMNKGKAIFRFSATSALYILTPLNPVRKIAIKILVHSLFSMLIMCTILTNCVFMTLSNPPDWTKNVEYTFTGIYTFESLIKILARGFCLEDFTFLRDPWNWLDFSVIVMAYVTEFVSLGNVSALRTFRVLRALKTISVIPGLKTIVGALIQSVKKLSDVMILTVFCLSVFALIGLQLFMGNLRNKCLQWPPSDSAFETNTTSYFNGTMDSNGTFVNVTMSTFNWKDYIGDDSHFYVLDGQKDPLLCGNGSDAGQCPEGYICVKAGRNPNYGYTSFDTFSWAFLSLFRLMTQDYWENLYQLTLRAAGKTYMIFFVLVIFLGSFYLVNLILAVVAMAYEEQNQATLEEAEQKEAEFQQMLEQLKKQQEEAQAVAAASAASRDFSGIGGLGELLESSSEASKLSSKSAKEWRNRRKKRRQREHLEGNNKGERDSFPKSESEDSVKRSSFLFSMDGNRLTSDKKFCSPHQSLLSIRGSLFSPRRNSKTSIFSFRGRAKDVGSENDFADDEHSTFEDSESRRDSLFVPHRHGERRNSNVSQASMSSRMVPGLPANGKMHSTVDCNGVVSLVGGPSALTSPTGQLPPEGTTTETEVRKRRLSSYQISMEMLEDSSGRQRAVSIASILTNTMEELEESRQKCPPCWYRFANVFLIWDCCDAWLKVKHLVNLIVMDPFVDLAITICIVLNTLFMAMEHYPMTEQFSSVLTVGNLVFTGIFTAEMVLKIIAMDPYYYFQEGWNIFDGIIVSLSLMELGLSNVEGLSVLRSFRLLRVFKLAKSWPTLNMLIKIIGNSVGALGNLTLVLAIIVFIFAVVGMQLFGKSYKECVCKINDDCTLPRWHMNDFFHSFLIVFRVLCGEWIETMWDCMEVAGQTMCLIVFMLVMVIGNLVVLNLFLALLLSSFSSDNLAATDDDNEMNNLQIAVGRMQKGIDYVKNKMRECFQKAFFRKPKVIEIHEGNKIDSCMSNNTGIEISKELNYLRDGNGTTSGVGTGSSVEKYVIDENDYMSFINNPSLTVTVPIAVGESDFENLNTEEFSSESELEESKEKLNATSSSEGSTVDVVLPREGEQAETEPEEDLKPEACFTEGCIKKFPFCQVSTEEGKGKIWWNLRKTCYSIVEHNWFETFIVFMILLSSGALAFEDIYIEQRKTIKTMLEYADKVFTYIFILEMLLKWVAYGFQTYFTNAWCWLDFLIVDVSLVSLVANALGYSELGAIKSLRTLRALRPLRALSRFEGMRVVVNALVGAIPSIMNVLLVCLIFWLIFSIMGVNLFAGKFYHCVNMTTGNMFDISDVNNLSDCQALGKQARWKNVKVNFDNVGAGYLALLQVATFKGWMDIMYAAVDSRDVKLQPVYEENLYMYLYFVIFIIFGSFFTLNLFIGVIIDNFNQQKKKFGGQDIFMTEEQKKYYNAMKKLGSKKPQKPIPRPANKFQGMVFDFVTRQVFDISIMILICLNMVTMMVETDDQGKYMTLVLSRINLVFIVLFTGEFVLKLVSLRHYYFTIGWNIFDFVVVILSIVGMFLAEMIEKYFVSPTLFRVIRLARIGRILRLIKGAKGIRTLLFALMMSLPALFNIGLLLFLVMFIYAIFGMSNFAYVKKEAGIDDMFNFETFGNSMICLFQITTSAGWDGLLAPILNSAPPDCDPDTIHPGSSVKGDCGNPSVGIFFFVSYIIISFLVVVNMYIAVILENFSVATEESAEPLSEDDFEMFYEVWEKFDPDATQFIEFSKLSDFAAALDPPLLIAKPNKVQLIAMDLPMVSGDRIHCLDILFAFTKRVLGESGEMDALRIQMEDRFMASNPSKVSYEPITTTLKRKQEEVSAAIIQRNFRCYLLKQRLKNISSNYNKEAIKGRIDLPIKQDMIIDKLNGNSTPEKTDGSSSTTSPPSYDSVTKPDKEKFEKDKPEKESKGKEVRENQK

SMILES	IC50 (NaV1.8 [2]) [µM]	other results
NC1=N[C@H](O)[C@H]2[C@H]3O[C@]4(O)O[C@@H]([C@@H](O)[C@@]2(N1)[C@@H]4O)[C@]3(O)CO [TTX, tetrodotoxin]		IC50 (NaV1.8 [1]): > 50 µM; IC50 (NaV1.3): 0.015 µM
CC(C)C[C@@H](O)C(=O)N1CCN(c2cccc(-c3ccccc3O)n2)CC1 [Compound 4, (R)-2-hydroxy-1-(4-(6-(2-hydroxyphenyl)pyridin-2-yl)piperazin-1-yl)-4-methylpentan-1-one]	< 10	
NCC1(CC(=O)O)CCCCC1 [Gabapentin]		share of patients in whom it works (neuropathic pain): 60%
CC(C)COC(=O)N1CCN(c2cccc(-c3ccccc3O)n2)CC1 [Compound 3, 4-[6-(2-hydroxyphenyl)-2-pyridyl]piperazine-1-carboxylic acid isobutyl ester]	10 to 15	
CC(C)COC(=O)N1CCN(c2cc(-c3ccccc3O)ccn2)CC1 [Compound 5, Isobutyl-4-[4′-(2-hydroxyphenyl)-pyridin-2′-yl]-piperazine-1-carboxylate]	> 15	
CC(C)COC(=O)N1CCN(c2ccnc(-c3ccccc3O)c2)CC1 [Compound 1, Isobutyl 4-(2-(2-hydroxyphenyl)pyridin-4-yl)piperazine-1-carboxylate]	> 15	

— patent US7683065B2, “Pyridines useful as modulators of ion channels” (Vertex Pharmaceuticals Incorporated, priority 2005, dated 2010)
